According to publication PMC7413254 (Nature Communications, 2020):

Key:
Type in all cases: cell-based
PfCRT^Ecu1110 [1] = target: T1, PfCRT^Ecu1110 (Plasmodium falciparum, UniProt Q9N623, A220S/I356L/K76T/N326D); experiment: cell-based; conditions: for PfCRT-mediated [3H]CQ transport, trans-stimulation (% PfCRTEcu1110 control): PfCRTEcu1110 oocytes, normalised to oocyte type control; for [3H]CQ transport (% PfCRTDd2 control), trans-stimulation, PfCRTEcu1110: PfCRT-mediated component (background subtracted), sheet title says normalised to PfCRTDd2 control, mean ± SEM, SEM
T1 sequence (Q9N623 whole entry A220S/I356L/K76T/N326D): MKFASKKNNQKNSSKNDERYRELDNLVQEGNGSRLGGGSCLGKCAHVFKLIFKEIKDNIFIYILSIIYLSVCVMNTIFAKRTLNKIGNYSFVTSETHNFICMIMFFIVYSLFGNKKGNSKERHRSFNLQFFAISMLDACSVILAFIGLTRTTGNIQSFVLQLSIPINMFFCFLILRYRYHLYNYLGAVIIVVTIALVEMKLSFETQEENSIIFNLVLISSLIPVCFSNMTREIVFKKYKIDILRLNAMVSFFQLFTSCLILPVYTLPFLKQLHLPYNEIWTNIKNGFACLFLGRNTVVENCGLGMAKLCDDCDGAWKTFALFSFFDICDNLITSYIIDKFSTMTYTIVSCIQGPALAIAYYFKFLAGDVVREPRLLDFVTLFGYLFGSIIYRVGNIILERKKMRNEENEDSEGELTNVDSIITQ
Experimental: (§1) Unless specified otherwise, the transport assays were conducted over 1.5 h at 27.5 °C and the reaction buffer was ND96 (96 mM NaCl, 2 mM KCl, 1 mM MgCl2, 1.8 mM CaCl2, 10 mM MES and 10 mM Tris-base) at pH 5.5.
(§2) The intracellular concentrations were calculated using previous estimates of the volume of stage V–VI oocytes (~400 nL[60]). […] The oocytes were injected with VF-6 suspended in 25 nL ND96 buffer adjusted to pH 5.0, 5.5, 6.0 or 7.0, which corresponded to the injection of 2.5–250 fmol of H^+. The Na^+-dependence of the trans-stimulatory effect of VF-6 was assessed by injecting the oocytes with VF-6 suspended in ND96 buffer (pH 5.5) or a Na^+-free version of this buffer (the Na^+ was replaced with choline).
(§3) At least four independent experiments were performed (on different days and using oocytes from different frogs), and within each experiment measurements were made from ten oocytes per treatment.

PfCRT^3D7 = PfCRT^3D7 (Plasmodium falciparum, UniProt Q8IBZ9); experiment: cell-based; conditions: PfCRT3D7 oocytes, normalised to oocyte type control
Sequence of PfCRT^3D7 (Q8IBZ9 59-398): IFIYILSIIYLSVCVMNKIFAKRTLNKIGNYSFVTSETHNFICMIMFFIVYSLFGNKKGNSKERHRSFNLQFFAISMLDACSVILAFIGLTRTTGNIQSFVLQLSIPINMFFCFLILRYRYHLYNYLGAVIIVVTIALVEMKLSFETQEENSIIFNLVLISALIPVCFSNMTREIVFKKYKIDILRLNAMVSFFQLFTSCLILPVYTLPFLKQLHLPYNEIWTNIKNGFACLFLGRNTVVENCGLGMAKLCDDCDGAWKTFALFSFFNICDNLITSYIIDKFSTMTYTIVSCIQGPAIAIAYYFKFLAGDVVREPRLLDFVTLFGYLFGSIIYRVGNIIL
Experimental: as §1, §2, §3

PfCRT^Dd2 [2] = target: T2, PfCRT^Dd2 (Plasmodium falciparum, UniProt Q9N623, A220S/I356T/K76T/M74I/N326S/N75E/Q271E/R371I); experiment: cell-based; conditions: for PfCRT-mediated [3H]CQ transport, trans-stimulation (% PfCRTDd2 control): PfCRTDd2 oocytes, normalised to oocyte type control; for [3H]CQ transport (% PfCRTDd2 control), trans-stimulation, PfCRTDd2: PfCRT-mediated component (background subtracted), mean ± SEM, SEM
T2 sequence (Q9N623 whole entry A220S/I356T/K76T/M74I/N326S/N75E/Q271E/R371I): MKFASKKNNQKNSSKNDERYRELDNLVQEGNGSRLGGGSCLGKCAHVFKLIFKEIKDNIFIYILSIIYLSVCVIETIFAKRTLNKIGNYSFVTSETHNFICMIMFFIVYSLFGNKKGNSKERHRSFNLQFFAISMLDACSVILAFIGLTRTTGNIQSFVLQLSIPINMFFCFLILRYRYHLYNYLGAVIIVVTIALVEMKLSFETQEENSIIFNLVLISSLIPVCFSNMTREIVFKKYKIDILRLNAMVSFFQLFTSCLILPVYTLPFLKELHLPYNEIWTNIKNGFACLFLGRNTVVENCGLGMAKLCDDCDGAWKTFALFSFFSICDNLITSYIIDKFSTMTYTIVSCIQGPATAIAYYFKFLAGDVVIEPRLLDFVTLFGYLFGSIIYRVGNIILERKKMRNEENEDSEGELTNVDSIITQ
Experimental: as §1, §2, §3

PfCRT^Ecu1110 [3] = target: T1, PfCRT^Ecu1110; experiment: [3H]CQ uptake into Xenopus oocytes, cis-inhibition by unlabelled solute; conditions: for PfCRT-mediated [3H]CQ transport, cis-inhibition (% PfCRTEcu1110 control): PfCRTEcu1110 oocytes, background [3H]CQ accumulation subtracted, normalised to oocyte type control; for [3H]CQ transport (% PfCRTEcu1110 control), cis-inhibition, PfCRTEcu1110: PfCRT-mediated component (background subtracted), sheet title says normalised to PfCRTDd2 control, mean ± SEM, SEM
Source text: (§4) The orientation of PfCRT in the parasite’s DV membrane, and also in the oocyte plasma membrane, is such that its N- and C-termini extend into the cytosol. The oocytes were suspended in a reaction buffer adjusted to pH 5.5 to mimic the pH of the DV lumen[1],[2]. In this scenario, the transport of a substrate via PfCRT from the acidic extracellular solution into the oocyte cytosol[15] is analogous to the parasite’s PfCRT-mediated efflux of a substrate from the acidic DV and into the cytosol. Unless specified otherwise, this is the direction in which substrate transport was measured in the oocyte assays.
as §1
(§5) Ten oocytes were washed twice with the relevant ND96 buffer. […] The assay was terminated by removing the reaction buffer and washing the oocytes with ice-cold ND96 buffer. The oocytes were lysed in 10% (w/v) sodium dodecyl sulfate (SDS) and the radioactivity accumulated within each oocyte was measured with a MicroBeta^2 microplate liquid scintillation analyser (PerkinElmer).
as §3

PfCRT^Dd2 [4] = target: T2, PfCRT^Dd2; experiment: as above; conditions: PfCRTDd2 oocytes, background [3H]CQ accumulation subtracted, normalised to oocyte type control
Source text: as §4, §1, §5, §3

[5] = [test solute]i = 5 mM (intracellular)
[6] = [test solute]i = 45 mM (intracellular; 30 mM for some solutes due to solubility)
[7] = [test solute]i = 5 mM (injected)
[8] = [test solute]i = 45 mM (30 mM for some solutes due to solubility)

Row | Substance | PfCRT-mediated [3H]CQ transport, trans-stimulation (% PfCRTEcu1110 control) (PfCRT^Ecu1110 [1]; [5]) | PfCRT-mediated [3H]CQ transport, trans-stimulation (% PfCRTEcu1110 control) (PfCRT^Ecu1110 [1]; [6]) | [3H]CQ transport (% PfCRTDd2 control), trans-stimulation, PfCRTEcu1110 (PfCRT^Ecu1110 [1]; [7]) | [3H]CQ transport (% PfCRTDd2 control), trans-stimulation, PfCRTEcu1110 (PfCRT^Ecu1110 [1]; [8]) | PfCRT-mediated [3H]CQ transport, trans-stimulation (% PfCRT3D7 control) (PfCRT^3D7; [5]) | PfCRT-mediated [3H]CQ transport, trans-stimulation (% PfCRT3D7 control) (PfCRT^3D7; [6]) | PfCRT-mediated [3H]CQ transport, trans-stimulation (% PfCRTDd2 control) (PfCRT^Dd2 [2]; [5]) | PfCRT-mediated [3H]CQ transport, trans-stimulation (% PfCRTDd2 control) (PfCRT^Dd2 [2]; [6]) | [3H]CQ transport (% PfCRTDd2 control), trans-stimulation, PfCRTDd2 (PfCRT^Dd2 [2]; [7]) | [3H]CQ transport (% PfCRTDd2 control), trans-stimulation, PfCRTDd2 (PfCRT^Dd2 [2]; [8]) | PfCRT-mediated [3H]CQ transport, cis-inhibition (% PfCRTEcu1110 control) (PfCRT^Ecu1110 [3]; [test solute] = 0.5 mM) | PfCRT-mediated [3H]CQ transport, cis-inhibition (% PfCRTEcu1110 control) (PfCRT^Ecu1110 [3]; [test solute] = 1 mM) | [3H]CQ transport (% PfCRTEcu1110 control), cis-inhibition, PfCRTEcu1110 (PfCRT^Ecu1110 [3]; [test solute] = 0.5 mM) | [3H]CQ transport (% PfCRTEcu1110 control), cis-inhibition, PfCRTEcu1110 (PfCRT^Ecu1110 [3]; [test solute] = 1 mM) | [3H]CQ transport (% PfCRTEcu1110 control), cis-inhibition, PfCRTEcu1110 (PfCRT^Ecu1110 [3]; [test solute] = 2 mM) | PfCRT-mediated [3H]CQ transport, cis-inhibition (% PfCRTDd2 control) (PfCRT^Dd2 [4]; [test solute] = 0.5 mM) | PfCRT-mediated [3H]CQ transport, cis-inhibition (% PfCRTDd2 control) (PfCRT^Dd2 [4]; [test solute] = 1 mM) | PfCRT-mediated [3H]CQ transport, cis-inhibition (% PfCRTDd2 control) (PfCRT^Dd2 [4]; [test solute] = 2 mM) | PfCRT-mediated [3H]CQ transport, cis-inhibition (% PfCRTEcu1110 control) (PfCRT^Ecu1110 [3]; [test solute] = 2 mM)
1 | HAGEYG [HG-6] | 98 ± 2.4 % PfCRTEcu1110 control | 96 ± 3.3 % PfCRTEcu1110 control | 30 ± 1.5 % PfCRTEcu1110 control | 29 ± 1.3 % PfCRTEcu1110 control | 136 ± 3.6 % PfCRT3D7 control | 190 ± 4.2 % PfCRT3D7 control | 101 ± 3.3 % PfCRTDd2 control | 98 ± 2.5 % PfCRTDd2 control | 101 ± 3.3 % PfCRTDd2 control | 98 ± 2.5 % PfCRTDd2 control | 35 ± 4.6 % PfCRTEcu1110 control | 27 ± 4.1 % PfCRTEcu1110 control | 11 ± 0.5 % PfCRTEcu1110 control | 9.0 ± 0.05 % PfCRTEcu1110 control | 4.0 ± 0.01 % PfCRTEcu1110 control | 36 ± 2.1 % PfCRTDd2 control | 22 ± 0.9 % PfCRTDd2 control | 9.3 ± 0.1 % PfCRTDd2 control | –
2 | GLAHL [GL-5] | 96 ± 4.1 % PfCRTEcu1110 control | 99 ± 3.6 % PfCRTEcu1110 control | 29 ± 1.4 % PfCRTEcu1110 control | 30 ± 1.3 % PfCRTEcu1110 control | 97 ± 3.5 % PfCRT3D7 control | 94 ± 4.6 % PfCRT3D7 control | 98 ± 4.1 % PfCRTDd2 control | 98 ± 3.3 % PfCRTDd2 control | 98 ± 4.1 % PfCRTDd2 control | 98 ± 3.3 % PfCRTDd2 control | 68 ± 2.5 % PfCRTEcu1110 control | 58 ± 3.5 % PfCRTEcu1110 control | – | 18 ± 0.1 % PfCRTEcu1110 control | 9.0 ± 0.01 % PfCRTEcu1110 control | 62 ± 1.1 % PfCRTDd2 control | 50 ± 3.5 % PfCRTDd2 control | 20 ± 1.3 % PfCRTDd2 control | 28 ± 2.0 % PfCRTEcu1110 control
